Results published in EP4467141A1, “PYRAZOLO-QUINOLINES AS SELECTIVE INHIBITORS OF GENOTOXIC STRESS-INDUCED IKK/NF- KB PATHWAYS FOR CANCER THERAPY” (Max-Delbrück-Centrum für Molekulare Medizin in der …, priority 2023, dated 2024).

Key:
Test in all cases: Kinase panel study
Type in all cases: biochemical
Details in all cases: read-out: Percentage of inhibition; for inhibition at 1 µM: 1000nM; for inhibition at 10 µM: 10000nM
AMPK (A2/B1/G2) = molecular target: T1, AMPK (A2/B1/G2) (Homo sapiens, UniProt P54646)
T1 construct: purchased Thermo Fisher Scientific
How it was run: (§1)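 Kinase inhibition was determined by a contract provider in cell-free ZLyte or Adapta assays. Results are expressed as % inhibition at 10 or 1 µM.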

PRKCI (PKC iota) = molecular target: T2, PRKCI (PKC iota) (Homo sapiens, UniProt P41743)
T2 construct: purchased Thermo Fisher Scientific
T2 sequence (P41743 1-596): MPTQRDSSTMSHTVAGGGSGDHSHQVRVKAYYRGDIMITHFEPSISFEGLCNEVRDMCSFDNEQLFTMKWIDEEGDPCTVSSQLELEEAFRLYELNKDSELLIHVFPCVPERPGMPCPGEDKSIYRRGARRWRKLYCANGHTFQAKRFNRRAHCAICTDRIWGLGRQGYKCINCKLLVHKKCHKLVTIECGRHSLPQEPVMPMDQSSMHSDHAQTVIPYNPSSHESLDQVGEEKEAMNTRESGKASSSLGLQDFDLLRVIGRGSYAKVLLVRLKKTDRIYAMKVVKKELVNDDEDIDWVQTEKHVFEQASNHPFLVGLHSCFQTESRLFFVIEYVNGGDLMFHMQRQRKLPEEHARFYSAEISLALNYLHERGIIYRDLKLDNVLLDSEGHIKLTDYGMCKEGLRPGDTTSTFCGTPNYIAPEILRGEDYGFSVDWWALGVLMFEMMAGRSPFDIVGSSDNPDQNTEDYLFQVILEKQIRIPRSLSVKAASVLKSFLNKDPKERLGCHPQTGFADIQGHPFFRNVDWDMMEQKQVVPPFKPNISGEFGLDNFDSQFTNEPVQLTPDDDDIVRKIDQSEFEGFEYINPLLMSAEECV
How it was run: as §1

FGFR2 = molecular target: T3, FGFR2 (Homo sapiens, UniProt P21802)
T3 construct: purchased Thermo Fisher Scientific
How it was run: as §1

PRKG1 = molecular target: T4, PRKG1 (Homo sapiens, UniProt Q13976)
T4 construct: purchased Thermo Fisher Scientific
T4 sequence (Q13976 1-671): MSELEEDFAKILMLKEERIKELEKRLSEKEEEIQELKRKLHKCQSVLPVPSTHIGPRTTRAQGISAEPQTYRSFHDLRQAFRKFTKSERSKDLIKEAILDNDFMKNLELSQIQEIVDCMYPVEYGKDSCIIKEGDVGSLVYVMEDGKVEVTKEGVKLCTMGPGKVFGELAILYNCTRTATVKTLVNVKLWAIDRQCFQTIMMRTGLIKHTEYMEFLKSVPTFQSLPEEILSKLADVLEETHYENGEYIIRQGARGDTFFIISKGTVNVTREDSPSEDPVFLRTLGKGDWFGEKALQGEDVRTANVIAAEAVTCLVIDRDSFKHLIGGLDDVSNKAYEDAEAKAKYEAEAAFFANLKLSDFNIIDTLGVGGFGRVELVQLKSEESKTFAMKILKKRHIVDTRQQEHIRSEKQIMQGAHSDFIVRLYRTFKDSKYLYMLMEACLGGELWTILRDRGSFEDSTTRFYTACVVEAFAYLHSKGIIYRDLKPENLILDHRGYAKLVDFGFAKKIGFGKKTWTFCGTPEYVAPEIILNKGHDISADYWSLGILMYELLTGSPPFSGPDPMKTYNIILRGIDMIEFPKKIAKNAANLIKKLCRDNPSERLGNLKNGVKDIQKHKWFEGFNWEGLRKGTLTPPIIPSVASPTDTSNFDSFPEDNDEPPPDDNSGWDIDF
How it was run: as §1

MARK1 (MARK) = molecular target: T5, MARK1 (MARK) (Homo sapiens, UniProt Q9P0L2)
T5 construct: purchased Thermo Fisher Scientific
How it was run: as §1

T3 sequence (P21802 22-821): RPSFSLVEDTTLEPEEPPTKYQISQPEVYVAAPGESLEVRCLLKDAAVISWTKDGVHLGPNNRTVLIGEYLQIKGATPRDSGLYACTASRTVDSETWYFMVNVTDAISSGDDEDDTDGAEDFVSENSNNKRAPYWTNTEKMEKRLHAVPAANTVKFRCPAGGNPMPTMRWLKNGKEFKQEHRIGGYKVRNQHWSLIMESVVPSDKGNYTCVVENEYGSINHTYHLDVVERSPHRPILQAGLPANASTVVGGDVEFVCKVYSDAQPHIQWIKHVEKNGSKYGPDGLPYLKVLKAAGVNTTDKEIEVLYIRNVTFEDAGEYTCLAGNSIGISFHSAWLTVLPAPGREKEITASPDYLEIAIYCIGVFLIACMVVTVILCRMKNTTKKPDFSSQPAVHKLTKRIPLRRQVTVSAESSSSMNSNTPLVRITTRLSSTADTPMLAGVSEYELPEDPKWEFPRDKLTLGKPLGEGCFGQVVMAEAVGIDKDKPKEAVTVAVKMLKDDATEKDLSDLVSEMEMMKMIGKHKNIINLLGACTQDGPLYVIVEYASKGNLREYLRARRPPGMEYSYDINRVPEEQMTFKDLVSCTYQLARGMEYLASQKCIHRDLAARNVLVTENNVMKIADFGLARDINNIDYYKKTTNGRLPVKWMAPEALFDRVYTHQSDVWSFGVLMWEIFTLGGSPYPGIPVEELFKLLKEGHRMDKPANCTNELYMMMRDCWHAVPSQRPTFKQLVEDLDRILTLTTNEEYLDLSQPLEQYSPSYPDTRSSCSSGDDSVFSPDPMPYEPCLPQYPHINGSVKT
T5 sequence (Q9P0L2 whole entry): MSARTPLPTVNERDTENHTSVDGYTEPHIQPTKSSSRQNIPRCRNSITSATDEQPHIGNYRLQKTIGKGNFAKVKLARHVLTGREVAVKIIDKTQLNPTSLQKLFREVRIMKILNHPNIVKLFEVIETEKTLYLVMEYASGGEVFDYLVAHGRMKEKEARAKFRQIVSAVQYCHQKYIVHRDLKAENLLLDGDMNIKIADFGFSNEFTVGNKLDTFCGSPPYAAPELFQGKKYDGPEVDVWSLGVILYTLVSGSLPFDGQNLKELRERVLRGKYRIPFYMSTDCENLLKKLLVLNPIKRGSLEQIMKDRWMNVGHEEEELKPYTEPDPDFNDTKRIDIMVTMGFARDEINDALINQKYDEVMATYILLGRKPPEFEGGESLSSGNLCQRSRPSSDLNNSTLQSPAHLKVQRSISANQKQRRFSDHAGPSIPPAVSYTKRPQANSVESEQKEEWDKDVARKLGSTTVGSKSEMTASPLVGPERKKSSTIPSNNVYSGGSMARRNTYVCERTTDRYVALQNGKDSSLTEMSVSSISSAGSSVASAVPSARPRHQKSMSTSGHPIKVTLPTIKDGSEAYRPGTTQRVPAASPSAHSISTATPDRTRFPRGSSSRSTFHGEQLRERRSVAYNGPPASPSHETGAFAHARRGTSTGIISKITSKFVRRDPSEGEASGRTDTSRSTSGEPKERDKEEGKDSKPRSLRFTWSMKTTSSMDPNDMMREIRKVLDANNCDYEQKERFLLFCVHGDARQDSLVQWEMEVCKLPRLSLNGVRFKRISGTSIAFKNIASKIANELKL
T1 sequence (P54646 whole entry): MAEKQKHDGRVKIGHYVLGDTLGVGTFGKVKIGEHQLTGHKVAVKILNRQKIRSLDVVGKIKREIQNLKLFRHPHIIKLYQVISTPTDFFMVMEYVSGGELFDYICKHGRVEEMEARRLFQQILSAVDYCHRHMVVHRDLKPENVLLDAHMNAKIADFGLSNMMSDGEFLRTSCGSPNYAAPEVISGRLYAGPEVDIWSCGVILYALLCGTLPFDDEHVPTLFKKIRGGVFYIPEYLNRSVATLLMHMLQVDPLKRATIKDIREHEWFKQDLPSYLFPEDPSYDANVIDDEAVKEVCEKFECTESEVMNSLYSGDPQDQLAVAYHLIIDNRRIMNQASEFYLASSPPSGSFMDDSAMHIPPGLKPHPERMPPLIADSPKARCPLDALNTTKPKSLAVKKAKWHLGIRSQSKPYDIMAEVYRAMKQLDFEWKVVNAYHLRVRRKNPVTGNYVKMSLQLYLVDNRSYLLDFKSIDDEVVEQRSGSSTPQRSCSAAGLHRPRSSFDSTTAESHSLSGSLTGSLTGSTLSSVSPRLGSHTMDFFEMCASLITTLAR
T1 sequence (Q9Y478 whole entry partner): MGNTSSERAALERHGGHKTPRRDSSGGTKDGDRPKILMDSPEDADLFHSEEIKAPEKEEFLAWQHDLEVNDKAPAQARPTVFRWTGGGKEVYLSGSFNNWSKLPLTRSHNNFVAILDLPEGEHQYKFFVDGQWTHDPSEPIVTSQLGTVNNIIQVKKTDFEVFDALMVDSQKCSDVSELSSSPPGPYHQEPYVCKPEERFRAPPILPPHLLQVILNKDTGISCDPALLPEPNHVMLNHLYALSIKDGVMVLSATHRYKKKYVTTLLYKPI
T1 sequence (Q9UGJ0 whole entry partner): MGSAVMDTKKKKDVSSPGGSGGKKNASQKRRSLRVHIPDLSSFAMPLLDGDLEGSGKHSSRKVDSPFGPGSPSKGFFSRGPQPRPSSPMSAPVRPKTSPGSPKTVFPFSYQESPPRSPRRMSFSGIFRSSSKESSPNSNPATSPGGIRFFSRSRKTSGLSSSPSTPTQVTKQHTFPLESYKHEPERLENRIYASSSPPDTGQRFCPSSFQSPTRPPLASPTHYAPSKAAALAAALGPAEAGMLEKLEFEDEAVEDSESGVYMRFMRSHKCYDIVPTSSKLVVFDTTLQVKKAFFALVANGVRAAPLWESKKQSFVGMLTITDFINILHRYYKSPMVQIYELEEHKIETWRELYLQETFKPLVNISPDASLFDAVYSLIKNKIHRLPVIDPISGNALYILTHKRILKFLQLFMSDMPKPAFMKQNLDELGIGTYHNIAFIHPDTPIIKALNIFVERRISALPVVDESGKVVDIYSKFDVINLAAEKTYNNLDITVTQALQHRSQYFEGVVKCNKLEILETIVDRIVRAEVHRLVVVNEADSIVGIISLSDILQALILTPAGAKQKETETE

Compound | inhibition at 1 µM (AMPK (A2/B1/G2)) | inhibition at 10 µM (AMPK (A2/B1/G2)) | inhibition at 1 µM (PRKCI (PKC iota)) | inhibition at 10 µM (PRKCI (PKC iota)) | inhibition at 1 µM (FGFR2) | inhibition at 10 µM (FGFR2) | inhibition at 1 µM (PRKG1) | inhibition at 10 µM (PRKG1) | inhibition at 1 µM (MARK1 (MARK)) | inhibition at 10 µM (MARK1 (MARK))
COc1ccc2c(c1OC)c(=O)n1c3ccc(O)cc3c3ccnc2c31 [MW01, 5-Hydroxy-10,11-dimethoxy-9H-benzo[c]indolo[3,2,1-ij][1,5]naphthyridin-9-one] | -12% | 10% | 4% | -8% | 13% | 11% | 27% | 59% | 4% | 6%
COc1ccc2cc3c(N)nn(C(=O)c4cccc(N(C)C)c4)c3nc2c1 [MW05, (3-Amino-7-methoxypyrazolo[3,4-b]quinolin-1-yl)-[3-(dimethylamino)phenyl]methanone] | -12% | -16% | 20% | 6% | 0% | -5% | 5% | -11% | 3% | -5%
